Experimental data reported in US8163909B2, “Substituted hydroxyethyl amine compounds as beta-secretase modulators and methods of use” (Amgen Inc., priority 2007, dated 2012).
Like-named read-outs stand apart in the source and are kept apart here.

How the values were obtained:
CYP2D6 = CYP2D6 (Homo sapiens, UniProt P10635); assay: CYP2D6 inhibition assay (bufuralol, pooled human liver microsomes)
CYP3A4 (CYP3A) = CYP3A4 (CYP3A) (Homo sapiens, UniProt P08684); assay: in vitro; conditions: microsomes, pH 7.4;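 also: inhibition of CYP3A-mediated 1-hydroxymidazolam formation after 10 min incubation with NADPH, quantified by HPLC MS relative to metabolite produced without test compound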
[1] = Microsomal stability assay, rat liver microsomes;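 also: rat liver microsomes (0.25 mg/mL) with about 1 µM compound plus 1 mM NADPH, pH 7.4, 37 °C for 30 min, parent left measured by LC-MS/MS against 0 min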
Abeta peptide = assay: In vivo inhibition of beta-secretase (reduction of Abeta peptide in brain and cerebrospinal fluid); design: species or system rat; conditions: Rattus norvegicus, po, 4 h, orally administered at 30 mg/kg dose, measured after 4 hours;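 also: abeta peptide quantified by sandwich ELISA with electrochemiluminescence readout in rat brain supernatant or CSF, relative to vehicle-dosed control animals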
[2] = Microsomal stability assay, human liver microsomes;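 also: pooled human liver microsomes at 0.25 mg/mL with 1 µM compound and NADPH at 37 °C, pH 7.4, for 30 min, unchanged parent quantified by LC-MS/MS against the 0 min sample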
[3] = system: Aβ40 in conditioned medium of cells stably expressing Amyloid Precursor Protein (APP); assay: In vitro BACE cell-based assay (Aβ40 in conditioned medium, sandwich ELISA); conditions: Homo sapiens;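 also: compounds added as a dilution series, secreted peptide quantified by europium time-resolved fluorescence readout, potency fitted from percent of control versus compound concentration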
[4] = molecular target: Beta Secretase enzyme (BACE) (Homo sapiens, UniProt P56817); assay: In vitro enzymatic BACE FRET (fluorescence resonance energy transfer) assay; format: biochemical;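 also: fluorescence read after 1 h with 50 nM quenched peptide substrate spanning the BACE cleavage site, in pH 4.2 acetate buffer containing 10% DMSO and nonionic detergent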
[5] = 2D6 IC50 (uM), CYP enzyme inhibition
[6] = rat cerebrospinal fluid, read-out: percent reduction of abeta peptide in the cerebrospinal fluid of the rat
[7] = HEK293, HEK cell-based assay, IC50's in uM, read-out: HEK cell assay
[8] = BACE enzyme assay, IC50's in uM, read-out: BACE1 FRET assay
[9] = 2D6 IC50, CYP enzyme inhibition
[10] = HEK293, cell-based assay, HEK cells, IC50's in uM, read-out: HEK cell assay
[11] = rat brain, read-out: percent reduction of abeta peptide in the brain of the rat
[12] = HEK293, HEK cells, read-out: HEK cell assay
[13] = BACE enzyme assay, read-out: BACE1 FRET assay

CYP3A4 (CYP3A), sequence (P08684 2-503): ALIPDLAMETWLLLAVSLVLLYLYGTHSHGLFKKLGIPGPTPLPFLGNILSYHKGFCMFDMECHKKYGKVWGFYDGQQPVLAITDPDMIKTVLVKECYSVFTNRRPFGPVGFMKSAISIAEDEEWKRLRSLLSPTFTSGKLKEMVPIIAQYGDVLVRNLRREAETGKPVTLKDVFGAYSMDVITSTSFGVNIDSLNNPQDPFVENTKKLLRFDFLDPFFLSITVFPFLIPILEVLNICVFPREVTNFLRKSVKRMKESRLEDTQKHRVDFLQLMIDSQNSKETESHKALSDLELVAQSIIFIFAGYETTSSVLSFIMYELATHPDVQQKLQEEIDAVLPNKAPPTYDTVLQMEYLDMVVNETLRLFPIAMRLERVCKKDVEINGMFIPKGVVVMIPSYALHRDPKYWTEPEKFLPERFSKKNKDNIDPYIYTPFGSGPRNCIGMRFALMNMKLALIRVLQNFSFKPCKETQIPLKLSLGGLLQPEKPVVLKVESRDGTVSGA
CYP2D6, sequence (P10635 whole entry): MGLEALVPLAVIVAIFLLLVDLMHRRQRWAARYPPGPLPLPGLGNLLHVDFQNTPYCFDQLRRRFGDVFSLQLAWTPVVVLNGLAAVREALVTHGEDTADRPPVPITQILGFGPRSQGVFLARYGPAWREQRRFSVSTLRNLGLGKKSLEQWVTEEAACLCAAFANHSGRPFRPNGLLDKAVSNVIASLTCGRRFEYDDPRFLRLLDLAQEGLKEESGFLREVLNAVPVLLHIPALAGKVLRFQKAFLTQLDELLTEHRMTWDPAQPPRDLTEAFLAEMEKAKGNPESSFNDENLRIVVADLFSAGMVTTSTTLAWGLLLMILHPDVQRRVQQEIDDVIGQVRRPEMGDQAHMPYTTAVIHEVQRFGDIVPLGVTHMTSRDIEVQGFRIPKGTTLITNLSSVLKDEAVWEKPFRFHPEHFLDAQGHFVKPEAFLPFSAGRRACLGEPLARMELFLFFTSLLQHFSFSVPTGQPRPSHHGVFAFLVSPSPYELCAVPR
Beta Secretase enzyme (BACE), sequence (P56817 46-501): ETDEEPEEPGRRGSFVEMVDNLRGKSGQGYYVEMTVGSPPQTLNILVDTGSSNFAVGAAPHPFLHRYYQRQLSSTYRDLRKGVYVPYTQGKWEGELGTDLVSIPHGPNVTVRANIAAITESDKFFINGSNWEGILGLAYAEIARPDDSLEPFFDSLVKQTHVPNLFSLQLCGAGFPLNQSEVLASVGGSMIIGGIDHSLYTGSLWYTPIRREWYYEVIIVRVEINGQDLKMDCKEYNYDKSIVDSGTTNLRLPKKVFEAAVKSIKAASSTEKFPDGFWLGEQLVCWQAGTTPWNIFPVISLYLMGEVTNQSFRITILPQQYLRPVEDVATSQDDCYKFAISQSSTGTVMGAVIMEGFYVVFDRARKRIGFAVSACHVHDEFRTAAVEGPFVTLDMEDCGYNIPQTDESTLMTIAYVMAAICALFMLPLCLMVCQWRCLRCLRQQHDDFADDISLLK

| SMILES | IC50 (CYP2D6; [5]) [µM] | IC50 (CYP3A4 (CYP3A)) [nM] | RLM ([1]; rat liver microsomal data) [µL/min/mg] | inhibition in vivo at 30 mg/kg (Abeta peptide; [6]) [%] | HLM ([2]; human liver microsomal data) [µL/min/mg] | IC50 [3, 7] [µM] | IC50 [4, 8] [µM] | IC50 (CYP2D6; [9]) [µM] | IC50 [3, 10] [µM] | inhibition in vivo at 30 mg/kg (Abeta peptide; [11]) [%] | IC50 [3, 12] [µM] | IC50 [4, 13] [µM] | IC50 (CYP2D6; 2D6 IC50, CYP2D6 inhibition) [µM] | RLM ([1]; rat liver microsomes) [µL/min/mg] | HLM ([2]; human liver microsomes) [µL/min/mg] | IC50 ([3]; HEK293, HEK cells, read-out: HEK cell assay (IC50)) [µM] | IC50 ([4]; read-out: BACE1 FRET assay (IC50)) [µM] |
| --- | --- | --- | --- | --- | --- | --- | --- | --- | --- | --- | --- | --- | --- | --- | --- | --- | --- |
| CO[C@H](C)C(=O)N[C@@H](Cc1cccc(-c2nccs2)c1)[C@H](O)CN[C@H]1CC2(CCC2)Oc2ncc(CC(C)(C)F)cc21 [Example 831, (2R)-N-((1S,2R)-3-(((4′S)-6′-(2-fluoro-2-methylpropyl)-3′,4′-dihydrospiro[cyclobutane-1,2′-pyrano[2,3-b]pyridin]-4′-yl)amino)-2-hydroxy-1-(3-(1,3-thiazol-2-yl)benzyl)propyl)-2-methoxypropanamide] | 0.8 | 200 | 45 | 10 to 80 | 21 | 0.047 | 0.024 | – | – | – | – | – | – | – | – | – | – |
| C#Cc1ccc(F)c(C[C@H](NC(=O)[C@@H](C)OC)[C@H](O)CN[C@H]2CC3(CCC3)Oc3ncc(CC(C)(C)C)cc32)c1 [Example 902] | – | 100 | 70 | 10 to 80 | 36 | – | 0.006 | 0.9 | 0.026 | – | – | – | – | – | – | – | – |
| COCC(=O)N[C@@H](Cc1cc(F)cc(F)c1)[C@H](O)CN[C@H]1CC2(CCC2)Oc2c(-c3ccncc3)cc(CC(C)(C)C)cc21 [Example 488] | 1.6 | 100 | 82 | 10 to 80 | 31 | – | – | – | – | 5 to 80 | 0.01 | 0.009 | – | – | – | – | – |
| C#Cc1cccc(C[C@H](NC(=O)[C@@H](C)OC)[C@H](O)CN[C@H]2CC3(CCC3)Oc3ncc(CC(C)(C)C)cc32)c1 [Example 849, (2R)-N-((1S,2R)-3-(((4′S)-6′-(2,2-dimethylpropyl)-3′,4′-dihydrospiro[cyclobutane-1,2′-pyrano[2,3-b]pyridin]-4′-yl)amino)-1-(3-ethynylbenzyl)-2-hydroxypropyl)-2-methoxypropanamide] | – | 50 | 43 | ≥ 50 | 18 | – | 0.005 | 3.2 | 0.008 | – | – | – | – | – | – | – | – |
| COC(OC)C(=O)N[C@@H](Cc1cccc(-c2ncco2)c1)[C@H](O)CN[C@H]1CC2(CCC2)Oc2ncc(CC(C)(C)C)cc21 [Example 826, N-((1S,2R)-3-(((4′S)-6′-(2,2-dimethylpropyl)-3′,4′-dihydrospiro[cyclobutane-1,2′-pyrano[2,3-b]pyridin]-4′-yl)amino)-2-hydroxy-1-(3-(1,3-oxazol-2-yl)benzyl)propyl)-2,2-dimethoxyacetamide] | 0.9 | 200 | 55 | 10 to 80 | 66 | 0.013 | 0.012 | – | – | 5 to 80 | – | – | – | – | – | – | – |
| COCC(=O)N[C@@H](Cc1cc(F)cc(-c2nccs2)c1)[C@H](O)CNC1CC2(CCC2)Oc2ncc(CC(C)(F)F)cc21 (stereo partly drawn) [Example 764, N-((1S,2R)-3-((6′-(2,2-difluoropropyl)-3′,4′-dihydrospiro[cyclobutane-1,2′-pyrano[2,3-b]pyridin]-4′-yl)amino)-1-(3-fluoro-5-(1,3-thiazol-2-yl)benzyl)-2-hydroxypropyl)-2-methoxyacetamide] | 0.7 | 300 | 33 | 10 to 80 | 41 | 0.018 | 0.011 | – | – | – | – | – | – | – | – | – | – |
| C#Cc1cc(C[C@H](NC(=O)COCC)[C@H](O)CN[C@H]2CC3(CCC3)Oc3ncc(CC(C)(C)C)cc32)ccc1F [Example 837] | 1.6 | 100 | 72 | 10 to 80 | 29 | 0.023 | 0.007 | – | – | – | – | – | – | – | – | – | – |
| CC(=O)N[C@@H](Cc1cccc(-c2nccs2)c1)[C@H](O)CN[C@H]1CC2(CCC2)Oc2ccc(CC(C)(C)C)cc21 [Example 641, N-((1S,2R)-3-(((4S)-6-(2,2-dimethylpropyl)-3,4-dihydrospiro[chromene-2,1′-cyclobutan]-4-yl)amino)-2-hydroxy-1-(3-(1,3-thiazol-2-yl)benzyl)propyl)acetamide] | – | 700 | – | 10 to 80 | – | – | – | – | – | – | – | – | 0.3 | 165 | 102 | 0.029 | 0.006 |
| COCC(=O)N[C@@H](Cc1cc(F)cc(F)c1)[C@H](O)CN[C@H]1CC2(CCC2)Oc2c1cc(CC(C)(C)C)nc2-c1ccncc1 [Example 528] | 1.3 | 100 | 72 | 10 to 80 | 19 | – | – | – | – | – | 0.023 | 0.01 | – | – | – | – | – |
